Results on 19 compounds are retold here after patent US12435051B2, “Dual modulator of mGluR5 and 5-HT2A receptor, and use thereof” (Vivozon Inc., priority 2020, dated 2025).

In assay [1] the test system is physical (tactile) allodynia in spinal nerve ligation model. The experiment in a line: Analgesic efficacy experiment using animal model (Chung model, spinal nerve ligation). The format is in vivo, Sprague-Dawley rats. The conditions noted are these: for inhibition in vivo at 12.5 mg/kg: 12.5 mpk. As to the method: The Chung model (spinal nerve ligation model) is a representative animal model to study neuropathic pain and is widely accepted as a gold standard for an animal pain model by global pharmaceutical companies around the world.
In this experiment, male Sprague-Dawley rats (100-120 g) purchased from Koatech (Pyeongtaek-si, Gyeonggi-do) were used. Rats were kept in a room maintained at constant temperature and humidity with a 12 hour light-dark cycle. Rats were allowed to eat and drink freely during the experiment.
For the Chung surgery, rats were anesthetized by isoflurane inhalation and the left lumbar nerves L5 and L6 were tightly tied with a suture thread (6-0 silk thread) at the end of the dorsal ganglion and at a front of an entrance to the sciatic nerve according to the article (Kim and Chung (1992), Pain 50(3):355-63). After suturing the incision, the rats were recovered for 2 weeks in the controlled maintenance room to induce physical allodynia in the left hind paw of the rat. To measure physical (tactile) allodynia, the rats were placed in a cage with a wire mesh on the bottom. Stimuli of increasing intensity (using the von Frey filaments in a range of 0.41 to 15.8 g) were placed on the plantar surface on the side of the nerve injury. The stimulus intensity at which the pain response (abrupt lifting, licking or sucking of the foot) was induced was recorded while applying gradual increment of stimuli. As described in the study of Chaplan et al. (1994) (Chaplan et al. (1994) J. Neurosci. Methods 53(1):55-63), the paw withdrawal threshold (PWT) was determined by increasing or decreasing continuous stimulus intensity, and the result was analyzed by applying Dixon's up-down method. Only rats showing no behavior dysfunction (e.g., feet dragging or dropping) were selected and included in the study, and the PWT of the rats used was 3.16 g or less.
After measuring the degree of basic reaction before drug injection, each compound and solvent were injected by oral administration (12.5-100 mg/kg), and the measurement was repeated at regular time intervals (60 and 120 minutes) after the drug was injected.
The experimenter conducted the PWT measurement in a blind condition not knowing which rat was administered with which drug. The control group was administered with gabapentin (65 mg/kg, intraperitoneal administration), and was randomly mixed during the measurement. Statistical analysis was performed on the measured pain response threshold by calculating the reversal rate (% reversal) from pain in Equation 1 below. […] Pain reversal rate (% reversal)=[(PWT after drug administration)−(PWT before drug administration)]*100/[(15 g, Estimated PWT in normal animals)−(PWT before drug administration)] [Equation 1]
The PWT used in this time is a value obtained by multiplying the gram, the unit of “force” measure, by 10,000, and taking the logarithm, which is a method generally used in academia.
Each experiment consisted of the compound group, the solvent group of the compound and the gabapentin (GBP) group as positive control group. As solvent of the compound, 0.5% HPMC (hydroxypropylmethyl cellulose) was used.

Assay [2] addresses T1, human 5-HT2AR (Homo sapiens, UniProt P28223).
T1 construct: expressed in transfected cells; host or cells: HEK293
The experiment in a line: HTRF-based IP1 accumulation assay (5-HT2AR antagonistic effect). Format: cell-based. The settings on record: HEK293 cells overexpressing human 5-HT2AR; serotonin at EC80. The gist of the method: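 HEK293 cells stably overexpressing human 5-HT2AR were pre-incubated with compound (top 10 μM, serial dilutions, LiCl buffer) 10 min at room temperature, then stimulated with EC80 serotonin 30 min at 37 °C. IP1 accumulation was read by HTRF; IC50s came from activity normalized to serotonin and IP1 controls.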

Assay [3] has as its target T2, mGluR5 (Homo sapiens, UniProt P41594).
T2 construct: expressed in transfected cells; host or cells: HEK293
The experiment in a line: Fluorescence-based Ca2+ mobilization assay. The conditions noted are these: HEK293 cells overexpressing mGluR5; L-glutamate at EC80. Format: cell-based. The gist of the method: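 HEK293 cells stably overexpressing mGluR5, dye-loaded 60 min at 37 °C, then preincubated with compound 30 min at room temperature in the dark. Ca2+ response to L-glutamate at EC80 read on FLIPR for 2 min. Signal normalised to glutamate (100%) and vehicle (0%); IC50 from % inhibition.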

[4] abbreviates: rat, oral, 25 mpk, 1 h, read-out: % reversal (1 h).
[5] abbreviates: rat, oral, 25 mpk, 2 h, read-out: % reversal (2 h).
Setting [6] is: Rattus norvegicus, po, 1 h, read-out: % reversal (1 h).
Where [7] appears, read: Rattus norvegicus, po, 2 h, read-out: % reversal (2 h).
[8] abbreviates: rat, oral, 50 mpk, 1 h, read-out: % reversal (1 h).
Setting [9] is: rat, oral, 50 mpk, 2 h, read-out: % reversal (2 h).
The mark [10] stands for this setting: rat, oral, 100 mpk, 1 h, read-out: % reversal (1 h).
The mark [11] stands for this setting: rat, oral, 100 mpk, 2 h, read-out: % reversal (2 h).

Molecules are shown by their SMILES. Where two headings read alike, the source gives them in different places.

T2 sequence (P41594 21-1212): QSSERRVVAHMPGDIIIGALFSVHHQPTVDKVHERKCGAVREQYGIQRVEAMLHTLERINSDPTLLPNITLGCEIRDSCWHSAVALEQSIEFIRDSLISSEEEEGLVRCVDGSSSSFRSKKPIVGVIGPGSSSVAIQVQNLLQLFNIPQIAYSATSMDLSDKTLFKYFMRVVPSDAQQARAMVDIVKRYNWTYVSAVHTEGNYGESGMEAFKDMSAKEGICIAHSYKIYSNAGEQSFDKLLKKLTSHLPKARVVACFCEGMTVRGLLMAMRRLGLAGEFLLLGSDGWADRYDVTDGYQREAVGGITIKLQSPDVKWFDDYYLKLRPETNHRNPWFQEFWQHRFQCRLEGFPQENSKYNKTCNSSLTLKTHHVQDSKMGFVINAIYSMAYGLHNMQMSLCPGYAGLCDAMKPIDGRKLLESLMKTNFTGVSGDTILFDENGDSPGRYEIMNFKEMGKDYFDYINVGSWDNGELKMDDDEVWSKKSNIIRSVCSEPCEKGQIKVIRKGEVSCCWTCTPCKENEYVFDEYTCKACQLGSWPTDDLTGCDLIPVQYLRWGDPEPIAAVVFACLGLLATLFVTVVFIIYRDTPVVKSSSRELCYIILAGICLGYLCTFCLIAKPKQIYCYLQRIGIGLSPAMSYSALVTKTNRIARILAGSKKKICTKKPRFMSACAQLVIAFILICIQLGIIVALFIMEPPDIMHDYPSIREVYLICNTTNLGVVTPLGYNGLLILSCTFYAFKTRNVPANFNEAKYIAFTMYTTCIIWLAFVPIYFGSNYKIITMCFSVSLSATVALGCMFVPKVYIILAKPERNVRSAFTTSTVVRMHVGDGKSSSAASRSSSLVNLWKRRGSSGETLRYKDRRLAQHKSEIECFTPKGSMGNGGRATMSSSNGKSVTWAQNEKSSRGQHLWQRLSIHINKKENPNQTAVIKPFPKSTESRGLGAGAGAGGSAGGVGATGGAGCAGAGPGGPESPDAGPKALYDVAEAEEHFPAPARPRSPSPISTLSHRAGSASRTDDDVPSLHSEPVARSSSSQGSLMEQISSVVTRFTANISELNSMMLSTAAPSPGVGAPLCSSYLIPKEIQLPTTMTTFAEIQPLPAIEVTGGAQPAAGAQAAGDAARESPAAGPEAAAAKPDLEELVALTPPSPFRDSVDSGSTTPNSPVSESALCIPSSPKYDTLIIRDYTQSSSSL
T1 sequence (P28223 whole entry): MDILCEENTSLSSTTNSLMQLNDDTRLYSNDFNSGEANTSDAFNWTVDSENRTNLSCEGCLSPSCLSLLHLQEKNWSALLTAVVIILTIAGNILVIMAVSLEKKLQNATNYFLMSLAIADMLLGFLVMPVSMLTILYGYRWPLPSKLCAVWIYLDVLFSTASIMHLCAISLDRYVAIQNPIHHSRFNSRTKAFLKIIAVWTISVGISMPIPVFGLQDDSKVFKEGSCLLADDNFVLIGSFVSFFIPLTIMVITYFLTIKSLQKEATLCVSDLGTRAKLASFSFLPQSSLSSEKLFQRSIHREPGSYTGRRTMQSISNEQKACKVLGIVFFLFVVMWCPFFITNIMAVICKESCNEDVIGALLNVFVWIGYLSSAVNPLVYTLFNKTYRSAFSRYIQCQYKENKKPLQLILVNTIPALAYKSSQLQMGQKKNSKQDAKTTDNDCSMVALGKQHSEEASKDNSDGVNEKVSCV

Regarding `CC1(CNC(=O)c2ccc(C#Cc3ccc(F)cc3)cc2)COC1` [Example 83, 4-((4-fluorophenyl)ethynyl)-N-((3-methyloxetan-3-yl)methyl)benzamide], the inhibition in vivo at 25 mg/kg was 55% in assay [1] (setting [4]) and 67.8% in assay [1] (setting [5]). Besides, the IC50 in assay [2] was 100 to 500 nM; in assay [3] it was below 100 nM.

`O=C(NCC1CC(F)(F)C1)c1ccc(C#Cc2ccccc2F)cc1` [Example 56, N-((3,3-difluorocyclobutyl)methyl)-4-((2-fluorophenyl)ethynyl)benzamide]: the inhibition in vivo at 50 mg/kg came to 47.4% in assay [1] (setting [6]) and 43.6% in assay [1] (setting [7]). In addition, the IC50 was 100 to 500 nM in assay [2] and below 100 nM in assay [3].

Take `O=C(NC[C@H]1CCCOC1)c1ccc(C#Cc2ccccc2F)cc1` [Example 92, (R)-4-((2-fluorophenyl)ethynyl)-N-((tetrahydro-2H-pyran-3-yl)methyl)benzamide]: the inhibition in vivo at 25 mg/kg was found to be 39.8% in assay [1] (setting [6]) and 48.7% in assay [1] (setting [7]). The IC50 in assay [2] is 100 to 500 nM; in assay [3], below 100 nM.

In the case of `C[C@]1(O)C[C@@H](CNC(=O)c2ccc(C#Cc3ccccc3F)cc2)C1` [Example 87, 4-((2-fluorophenyl)ethynyl)-N-(((1s,3s)-3-hydroxy-3-methylcyclobutyl)methyl)benzamide], the inhibition in vivo at 50 mg/kg in assay [1] (setting [8]) is 93.7%; in assay [1] (setting [9]), 104%. For the same compound, the IC50 is 100 to 500 nM in assay [2] and below 100 nM in assay [3].

Regarding `O=C(NCC1(NC2CC2)CCCC1)c1ccc(C#Cc2ccc(F)cn2)cc1` [Example 3, N-((1-(cyclopropylamino)cyclopentyl)methyl)-4-((5-fluoropyridin-2-yl)ethynyl)benzamide], the inhibition in vivo at 50 mg/kg was 59% in assay [1] (setting [8]) and 87.9% in assay [1] (setting [9]). For the same compound, the IC50 in assay [2] fell in the range of 100 to 500 nM; in assay [3] it was 500 to 1000 nM.

As for `O=C(NCC1(NC2CC2)CCCCCC1)c1ccc(C#Cc2ccccn2)cc1` [Example 1, N-((1-(cyclopropylamino)cycloheptyl)methyl)-4-(pyridin-2-ylethynyl)benzamide], the inhibition in vivo at 100 mg/kg in assay [1] (setting [10]) was determined as 60.5%; in assay [1] (setting [11]), 85.7%. Also, the IC50 in assay [2] lay within 100 to 500 nM; in assay [3], 1000 to 2000 nM.

As for `O=C(NCC1(NC2CC2)CCCC1)c1ccc(C#Cc2ccccc2F)cc1` [Example 11, N-((1-(cyclopropylamino)cyclopentyl)methyl)-4-((2-fluorophenyl)ethynyl)benzamide], the inhibition in vivo at 100 mg/kg came out at 58.7% in assay [1] (setting [10]) and 57.4% in assay [1] (setting [11]). Also, the IC50 was below 100 nM in assay [2] and 100 to 500 nM in assay [3].

With `O=C(NC[C@@H]1CCCO1)c1ccc(C#Cc2ccccc2F)cc1` [Example 46, (S)-4-((2-fluorophenyl)ethynyl)-N-((tetrahydrofuran-2-yl)methyl)benzamide], the results for the inhibition in vivo at 100 mg/kg in assay [1] (setting [10]) and in assay [1] (setting [11]) were 73% and 99.8%, respectively. Also, the IC50 in assay [2] and in assay [3] was 100 to 500 nM in each case.

Turning to `O=C(NCC1CCC(F)(F)CC1)c1ccc(C#Cc2ccccc2F)cc1` [Example 39, N-((4,4-difluorocyclohexyl)methyl)-4-((2-fluorophenyl)ethynyl)benzamide], the inhibition in vivo at 100 mg/kg in assay [1] (setting [6]) was 25.4%; in assay [1] (setting [7]), 33.5%. For the same compound, the IC50 in assay [2] and in assay [3] was below 100 nM throughout.

As for `O=C(NCC1CCOC1)c1ccc(C#Cc2ccc(F)cc2)cc1` (stereo not shown) [Example 94, 4-((4-fluorophenyl)ethynyl)-N-((tetrahydrofuran-3-yl)methyl)benzamide], the inhibition in vivo at 50 mg/kg in assay [1] (setting [8]) turned out to be 74.2%; in assay [1] (setting [9]) it was 97.7%. The IC50 in assay [2] and in assay [3] was 100 to 500 nM throughout.

Turning to `O=C(NCC1CCCOC1)c1ccc(C#Cc2ccccc2F)cc1` (stereo not shown) [Example 40, 4-((2-fluorophenyl)ethynyl)-N-((tetrahydro-2H-pyran-3-yl)methyl)benzamide], the inhibition in vivo at 50 mg/kg in assay [1] (setting [8]) was found to be 103%; in assay [1] (setting [9]) it was 111%. The concentration for half-maximal inhibition (IC50) is 100 to 500 nM in assay [2] and below 100 nM in assay [3].

As for `O=C(NCC1(O)COC1)c1ccc(C#Cc2ccccc2F)cc1` [Example 82, 4-((2-fluorophenyl)ethynyl)-N-((3-hydroxyoxetan-3-yl)methyl)benzamide], the figures for the inhibition in vivo at 50 mg/kg in assay [1] (setting [8]) and in assay [1] (setting [9]) were 70.3% and 89.1%, respectively. In addition, the IC50 in assay [2] and in assay [3] was 500 to 1000 nM in each case.

Consider `O=C(NCC1CCCC(O)C1)c1ccc(C#Cc2ccccc2F)cc1` (stereo not shown) [Example 64, 4-((2-fluorophenyl)ethynyl)-N-((3-hydroxycyclohexyl)methyl)benzamide], for which the inhibition in vivo at 50 mg/kg turned out to be 10.4% in assay [1] (setting [8]) and 45.2% in assay [1] (setting [9]). For the same compound, the IC50 in assay [2] was 500 to 1000 nM; in assay [3] it was below 100 nM.

For `O=C(NC[C@H]1CCCO1)c1ccc(C#Cc2ccccc2F)cc1` [Example 45, (R)-4-((2-fluorophenyl)ethynyl)-N-((tetrahydrofuran-2-yl)methyl)benzamide], the inhibition in vivo at 50 mg/kg in assay [1] (setting [8]) amounted to 77.7%; in assay [1] (setting [9]), 50.6%. The IC50 in assay [2] was 100 to 500 nM; in assay [3], below 100 nM.

Take `O=C(NCC1CCOCC1)c1ccc(C#Cc2ccc(F)cc2F)cc1` [Example 44, 4-((2,4-difluorophenyl)ethynyl)-N-((tetrahydro-2H-pyran-4-yl)methyl)benzamide]: the inhibition in vivo at 50 mg/kg in assay [1] (setting [8]) is 3.45%; in assay [1] (setting [9]) it was 9.13%. For the same compound, the IC50 in assay [2] is below 100 nM; in assay [3], 500 to 1000 nM.

For the compound `O=C(NCC1CCOCC1)c1ccc(C#Cc2ccccc2)cc1` [Example 49, 4-(phenylethynyl)-N-((tetrahydro-2H-pyran-4-yl)methyl)benzamide], the values for the inhibition in vivo at 25 mg/kg in assay [1] (setting [4]) and in assay [1] (setting [5]) were 28.5% and 22%, respectively. For the same compound, the IC50 in assay [2] is 100 to 500 nM; in assay [3], below 100 nM.

Regarding `O=C(NCC1CCCCC1O)c1ccc(C#Cc2ccccc2F)cc1` (stereo not shown) [Example 63, 4-((2-fluorophenyl)ethynyl)-N-((2-hydroxycyclohexyl)methyl)benzamide], the inhibition in vivo at 50 mg/kg was found to be 70.9% in assay [1] (setting [8]) and 42.1% in assay [1] (setting [9]). Moreover, the IC50 is 100 to 500 nM in assay [2] and below 100 nM in assay [3].

Regarding `O=C(NCC1(NC2CC2)CCCC1)c1ccc(C#Cc2ccncc2)cc1` [Example 2, N-((1-(cyclopropylamino)cyclopentyl)methyl)-4-(pyridin-4-ylethynyl)benzamide], the inhibition in vivo at 12.5 mg/kg amounted to 3.91% in assay [1] (rat, oral, 1 h, read-out: % reversal (1 h)) and 28.1% in assay [1] (rat, oral, 2 h, read-out: % reversal (2 h)). The IC50 in assay [2] was below 100 nM; in assay [3] it was 500 to 1000 nM.

As for `CC(C)NC1(CNC(=O)c2ccc(C#Cc3ccccc3)cc2)CCCCC1` [Example 55, N-((1-(isopropylamino)cyclohexyl)methyl)-4-(phenylethynyl)benzamide], the results for the inhibition in vivo at 100 mg/kg in assay [1] (setting [10]) and in assay [1] (setting [11]) were 68.9% and 80.2%, respectively. Further, the IC50 was below 100 nM in assay [2] and 1000 to 2000 nM in assay [3].
